Entries after “also recorded” stand apart in the source; their conditions may differ.
Tests used:
[1] = tested on: cultured cortical neurons; test: Epileptiform burst activity in cultured cortical neurons (whole-cell patch-clamp); type: cell-based, mouse; details: CTZ 10 μM, 24 hrs, blocker 100 μM
Method: Mouse cortical neurons were prepared from newborn C57BL/6 mice as previously described. Qi et al., “Cyclothiazide induces robust epileptiform activity in rat hippocampal neurons both in vitro and in vivo” The Journal Of Physiology 571:605-618 (2006). Briefly, the newborn mouse cerebral cortices were dissected out in ice-cold HEPES-buffered saline solution, washed and digested with 0.05% trypsin-EDTA at 37° C. for 20 min. After deactivation of trypsin with serum-containing medium, cells were centrifuged, resuspended, and seeded on a monolayer of cortical astrocytes at a density of 10,000 cells/cm^2 in 24-well plates. The neuronal culture medium contained MEM (500 ml, Invitrogen), 5% fetal bovine serum (Atlanta Biologicals), 10 ml B-27 supplement (Invitrogen), 100 mg NaHCO3, 2 mM Glutamax (Invitrogen), and 25 units/ml penicillin & streptomycin. AraC (4 μM, Sigma) was added to inhibit the excessive proliferation of astrocytes. Cell cultures were maintained in a 5% CO2-humidified incubator at 37° C. for 14-21 days.
The cultured neurons were placed in the recording chamber with continuous perfusion of the bath solution consisting of (mM): 128 NaCl, 10 Glucose, 25 HEPES, 5 KCl, 2 CaCl2, 1 MgSO4, pH 7.3 adjusted with NaOH, and osmolarity ˜300 mOsm. For recording spontaneous firing under current clamp mode, pipettes were filled with an internal solution containing (in mM): 125 K-gluconate, 5 Na-phosphocreatine, 5 EGTA, 10 KCl, 10 HEPES, 4 Mg-ATP, 0.3 Na-GTP, 280-290 mOsm, pH 7.3 adjusted with KOH. Epileptiform activity in cultured neurons was induced either by 10 μM CTZ for 24 h, or 1 μM KA for 2 h, or 50 μM 4-AP for 2 h. The burst activity was defined as previously described. Qi et al., “Cyclothiazide induces robust epileptiform activity in rat hippocampal neurons both in vitro and in vivo” The Journal Of Physiology 571:605-618 (2006). In brief, at least five consecutive action potentials overlaying on top of the large depolarization shift (≥10 mV depolarization and ≥300 ms in duration).

[2] = tested on: Cl− channels; test: Cl− current recording in cultured cortical neurons; type: cell-based, mouse; details: blocker 100 μM
[3] = tested on: hippocampal slices; test: Field potential recording of epileptiform activity in hippocampal slices (CA3 pyramidal layer); type: cell-based, mouse; details: 100 μm (FIG. 10)
[4] = tested on: GABAA-R reversal potential (EGABA); test: Gramicidin-perforated whole-cell recording of GABAA-R reversal potential (EGABA) in CA3 pyramidal neurons; type: cell-based, mouse; details: for positive EGABA shift induced by 0 Mg2+ aCSF: neonatal CA3 neurons; for EGABA in 0 Mg2+ aCSF: neonatal P8-P9, 0 Mg2+ aCSF; for EGABA in 0 Mg2+ aCSF / EGABA in normal aCSF: bumetanide 10 μM, VU0240551 10 μM, NaGcA 20 mM; for EGABA in normal aCSF: neonatal P8-P9
Method: To further test this idea, the GABAA-R reversal potential (EGABA), which governs GABA excitatory versus inhibitory function, was directly measured using gramicidin-perforated whole-cell recordings in neonatal mouse brain slices (e.g., P8-P9). As expected, epileptiform activity induced a large depolarizing shift in EGABA after treating hippocampal slices with 0 Mg^2+ aCSF for 1 h (aCSF: −59.2±2.0 mV, n=13; 0 Mg^2+: −48.2±1.1 mV, n=10). FIG. 16D. Treatment with bumetanide (Bum, 10 μM), a specific blocker for NKCC1 at low concentrations, induced a hyperpolarizing shift in EGABA (blue line) as compared to a control EGABA (dashed line). […]. […] Kaila et al., “Cation-chloride cotransporters in neuronal development, plasticity and disease” Nature Reviews. Neuroscience 15:637-654 (2014); Dzhala et al., “NKCC1 transporter facilitates seizures in the developing brain” Nature Medicine 11:1205-1213 (2005); and Loscher et al., “Cation-chloride cotransporters NKCC1 and KCC2 as potential targets for novel antiepileptic and antiepileptogenic treatments” Neuropharmacology 69:62-74 (2013). […] FIG. 16E, yellow line; Bum, −68.0±1.7 mV (n=9); 0 Mg^2++Bum, −50.2±1.4 mV (n=9); (p<0.002).

[5] = tested on: GABA-induced neuronal activity; test: Cell-attached recording of spike firing elicited by isoguvacine in CA3 pyramidal neurons; type: cell-based, mouse; details: P8-9, isoguvacine 10 μM, 30 s
Method: Besides EGABA, the effects of different drugs on GABA-induced neuronal activity during epileptogenesis were investigated in neonatal animals (e.g., P8-9). To accurately measure GABA-induced neuronal activity, cell-attached recordings monitored spike firing elicited by local application of the GABAA-R agonist isoguvacine (10 μM, 30 s). Tyzio et al., “Maternal oxytocin triggers a transient inhibitory switch in GABA signaling in the fetal brain during delivery” Science 314:1788-1792 (2006). […] FIG. 16K, control, (n=32). […] FIG. 16K, 0 Mg^2+ (n=19). […] FIG. 16K; 0 Mg^2++Bum (n=19); and 0 Mg^2++VU (n=21). […] FIG. 16K; 0 Mg^2++NaGcA (n=18).

[6] = tested on: KA induced neonatal seizure; test: KA-induced neonatal seizure, in vivo EEG recording; parameters: species or system rat; details: for reduction of relative EEG power: last 30 min of a 2-hr recording period after KA injection, neonatal
Method: For example, neonatal rats were administered gluconate to determine the effect on in vivo epileptic seizures in neonatal and adult animals. […] FIGS. 14A and 14B; Dzhala et al., “NKCC1 transporter facilitates seizures in the developing brain” Nature Medicine 11:1205-1213 (2005). […] FIGS. 14C and 14D.
To test the in vivo anti-epilepsy effects of gluconate in neonatal and adult rodents, P8-12 Sprague-Dawley rats or 2-month old male C57BL/6 mice were deeply anesthetized with pentobarbital sodium (50 mg/kg for neonatal rat and 100 mg/kg for adult mice, intraperitoneal injection). Two stainless steel screws (1 mm in diameter) were inserted in the skull above the cortex as EEG recording electrodes, one ground electrode as well as one reference electrode were located +1.8 mm anterior to bregma, ±0.5 mm lateral to the midline, and 1 mm below the cortical surface. All electrodes were attached to a micro-connector and fixed onto the skull with dental cement. After surgery, neonatal rats were returned to their mothers and allowed to recover for 2 days prior to subsequent EEG recording. The adult mice were single housed in order to prevent damage of the implanted electrodes and allowed to recover at least 5 days before EEG recording.
The baseline of EEG was recorded for 0.5-1 hr to allow the animal to adapt to the environment. Kainic acid (2 mg/kg) was administered intraperitoneally (i.p.) for neonatal epilepsy induction. D-gluconic acid sodium salt (2 g/kg) or 0.9% saline was injected i.p. 10 min after KA administration. Pentylenetetrazol (PTZ) was administered intraperitoneally for inducing a stable epileptic burst activity in adult mice, and D-gluconic acid sodium salt (1 g/kg and 2 g/kg) or 0.9% saline was injected i.p. 10 min before PTZ administration. Epileptiform activity was monitored for 1 hr after PTZ injection. Qian et al., “Epileptiform response of CA1 neurones to convulsant stimulation by cyclothiazide, kainic acid and pentylenetetrazol in anaesthetized rats” Seizure 20:312-319 (2011). After the experiment, animals were injected with diazepam to protect the animals from recurrent epilepsy.
Power was calculated in 1-min time windows by integrating the power of dominant frequency bands from 1 to 100 Hz (EEG band).

[7] = tested on: neonatal seizures; details: infant babies, clinical trial (Pressler et al.); cited from earlier work
[8] = molecular target: T1, CLC-3 Cl− channels (Mus musculus, UniProt P51791); test: Voltage-dependent outward rectifying Cl− currents in CA3 pyramidal neurons of hippocampal slices; type: cell-based; details: P8-12 neonatal mice; 20 mM NaGcA, 10 mM Mg(GcA)2, 20 mM gluconic acid
T1 construct: CA3 pyramidal neurons of hippocampal slices from neonatal mice; from tissue; host or cells: acute hippocampal slices (CA3 pyramidal neurons), C57BL/6 mice
T1 sequence (P51791 1-818): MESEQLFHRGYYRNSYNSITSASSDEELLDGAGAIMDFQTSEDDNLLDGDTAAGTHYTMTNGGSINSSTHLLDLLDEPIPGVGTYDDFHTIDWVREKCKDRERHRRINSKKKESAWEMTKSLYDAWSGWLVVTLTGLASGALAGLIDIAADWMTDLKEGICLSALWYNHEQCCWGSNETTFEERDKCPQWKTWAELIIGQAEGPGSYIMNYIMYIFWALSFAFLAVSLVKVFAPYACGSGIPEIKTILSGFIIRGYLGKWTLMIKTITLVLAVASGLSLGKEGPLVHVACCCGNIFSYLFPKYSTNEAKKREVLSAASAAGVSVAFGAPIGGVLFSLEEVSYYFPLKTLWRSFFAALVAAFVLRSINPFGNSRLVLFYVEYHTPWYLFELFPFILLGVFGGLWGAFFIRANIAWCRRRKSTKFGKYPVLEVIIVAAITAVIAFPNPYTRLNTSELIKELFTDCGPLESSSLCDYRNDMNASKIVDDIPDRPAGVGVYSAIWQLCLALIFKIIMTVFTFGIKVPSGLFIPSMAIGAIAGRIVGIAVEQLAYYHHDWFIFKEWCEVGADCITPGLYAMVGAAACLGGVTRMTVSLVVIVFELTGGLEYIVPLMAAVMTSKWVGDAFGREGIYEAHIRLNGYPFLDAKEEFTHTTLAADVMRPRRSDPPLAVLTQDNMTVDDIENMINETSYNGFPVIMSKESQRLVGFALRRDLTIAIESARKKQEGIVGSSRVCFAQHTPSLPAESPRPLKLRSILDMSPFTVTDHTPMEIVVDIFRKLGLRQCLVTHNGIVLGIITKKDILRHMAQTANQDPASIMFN

O=S(=O)([O-])c1cc(N=C=S)ccc1C=Cc1ccc(N=C=S)cc1S(=O)(=O)[O-].[Na+].[Na+] [DIDS, 4,4′-Diisothiocyanato-2,2′-stilbenedisulfonic acid disodium salt, reference compound]
epileptiform activity induced by CTZ ([1]; disodium salt): significantly inhibited; also recorded: potently inhibited
Cl− currents (inhibition by classic Cl− channel blockers) ([2]; disodium salt): significantly suppressed; also recorded: persistent inhibition

O=C(O)c1cccnc1Nc1cccc(C(F)(F)F)c1 [NFA, niflumic acid, reference compound]
epileptic activity in neonatal hippocampal slices (other Cl− channel blockers) [3]: inhibit neonatal seizures

O=C(O)c1cc([N+](=O)[O-])ccc1NCCCc1ccccc1 [NPPB, 5-Nitro-2-(3-phenylpropylamino) benzoic acid, reference compound]
epileptiform activity induced by CTZ [1]: significantly inhibited; also recorded: potently inhibited
Cl− currents (inhibition by classic Cl− channel blockers) [2]: significantly suppressed; also recorded: inhibited
epileptic activity in neonatal hippocampal slices (other Cl− channel blockers) [3]: inhibit neonatal seizures

Cc1csc(NC(=O)CSc2ccc(-c3ccccc3)nn2)n1 [VU0240551]
positive EGABA shift induced by 0 Mg2+ aCSF [4]: no effect
EGABA in 0 Mg2+ aCSF [4]: −48.9±1.3 mV
EGABA in normal aCSF [4]: −60.8±1.9 mV
spike activity elicited by isoguvacine after 0 Mg2+ treatment [5]: did not change

CCCCNc1cc(C(=O)O)cc(S(N)(=O)=O)c1Oc1ccccc1 [bumetanide]
epileptic seizure (burst) activity in EEG ([6]; P10-12, KA 2 mg/kg i.p., drug i.p. 10 min after KA: NaGcA 2 g/kg, phenobarbital 25 mg/kg, bumetanide 2 mg/kg): not as potent as gluconate
reduction of relative EEG power [6]: 54.3%
positive EGABA shift induced by 0 Mg2+ aCSF [4]: did not abolish
EGABA in 0 Mg2+ aCSF [4]: −50.2±1.4 mV
EGABA in normal aCSF [4]: −68.0±1.7 mV
spike activity elicited by isoguvacine after 0 Mg2+ treatment [5]: did not change
effect in treating neonatal seizure (clinical trial) [7]: very limited effect
side effects (clinical trial) [7]: severe side effects

O=C(O)[C@H](O)[C@@H](O)[C@H](O)[C@H](O)CO [gluconic acid]
Cl− current inhibition by gluconic acid with various counter ions [8]: equivalent Cl− current inhibition

CCC1(c2ccccc2)C(=O)NC(=O)NC1=O [phenobarbital, reference compound]
reduction of relative EEG power [6]: 35.5%

magnesium gluconate
Cl− current inhibition by gluconic acid with various counter ions [8]: equivalent Cl− current inhibition

From patent US11666640B2, “Glucose oxidase compositions as a neonate anticonvulsant” (PENN STATE RESEARCH FOUNDATION, priority 2018, dated 2023)
